# In the supplement of paper PMC10307832:
# How the values were obtained:
# Assay in all cases: relative viability (nuclei count vs DMSO), 5 days (fraction); higher = more cells survive
# Neratinib + OSI-027 = compound: CCOc1cc2ncc(C#N)c(Nc3ccc(OCc4ccccn4)c(Cl)c3)c2cc1NC(=O)/C=C/CN(C)C [Neratinib] + COc1cccc2cc(-c3nc([C@H]4CC[C@H](C(=O)O)CC4)n4ncnc(N)c34)[nH]c12 [OSI-027] (partner 0.5 µM)
# Summary of the method: (§1)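 Cells from lung cancer lines were seeded into 1536-well plates and, one day later, dosed by pin tool. Treatments were either a single drug or a fixed dose of an anchor drug with five library-drug doses (not always all listed) in √10 steps. After 5 days, nuclei were stained in a one-step fixation (final 0.05% Triton X-100, 1% formaldehyde, 1 ug/ml Hoechst) and counted on 4× images, and relative viability is the treated-to-vehicle nuclei ratio, as the median of duplicate plates.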
# Neratinib + Trametinib = compound: CCOc1cc2ncc(C#N)c(Nc3ccc(OCc4ccccn4)c(Cl)c3)c2cc1NC(=O)/C=C/CN(C)C [Neratinib] + CC(=O)Nc1cccc(-n2c(=O)n(C3CC3)c(=O)c3c(Nc4ccc(I)cc4F)n(C)c(=O)c(C)c32)c1 [Trametinib] (partner 0.02 µM)
# Summary of the method: as §1
# Neratinib + Phenformin = compound: CCOc1cc2ncc(C#N)c(Nc3ccc(OCc4ccccn4)c(Cl)c3)c2cc1NC(=O)/C=C/CN(C)C [Neratinib] + N=C(N)NC(=N)NCCc1ccccc1 [Phenformin] (partner 250 µM)
# Summary of the method: as §1
# Neratinib + Crizotinib = compound: CCOc1cc2ncc(C#N)c(Nc3ccc(OCc4ccccn4)c(Cl)c3)c2cc1NC(=O)/C=C/CN(C)C [Neratinib] + C[C@@H](Oc1cc(-c2cnn(C3CCNCC3)c2)cnc1N)c1c(Cl)ccc(F)c1Cl [Crizotinib] (partner 1 µM)
# Summary of the method: as §1
Cell Line,relative viability (Neratinib + OSI-027; first compound 0.01 µM),relative viability (Neratinib + OSI-027; first compound 0.03162 µM),relative viability (Neratinib + OSI-027; first compound 0.1 µM),relative viability (Neratinib + OSI-027; first compound 0.3162 µM),relative viability (Neratinib + OSI-027; first compound 1 µM),relative viability (Neratinib + Trametinib; first compound 0.01 µM),relative viability (Neratinib + Trametinib; first compound 0.03162 µM),relative viability (Neratinib + Trametinib; first compound 0.1 µM),relative viability (Neratinib + Trametinib; first compound 0.3162 µM),relative viability (Neratinib + Trametinib; first compound 1 µM),relative viability (Neratinib + Phenformin; first compound 0.01 µM),relative viability (Neratinib + Phenformin; first compound 0.03162 µM),relative viability (Neratinib + Phenformin; first compound 0.1 µM),relative viability (Neratinib + Phenformin; first compound 0.3162 µM),relative viability (Neratinib + Phenformin; first compound 1 µM),relative viability (Neratinib + Crizotinib; first compound 0.01 µM),relative viability (Neratinib + Crizotinib; first compound 0.03162 µM),relative viability (Neratinib + Crizotinib; first compound 0.1 µM),relative viability (Neratinib + Crizotinib; first compound 0.3162 µM),relative viability (Neratinib + Crizotinib; first compound 1 µM)
NCI-H1755,0.795,0.785,0.721,0.695,0.528,0.761,0.814,0.646,0.752,0.809,0.641,0.657,0.535,0.593,0.577,0.873,0.919,0.752,0.912,0.476
NCI-H1792,0.825,0.87,0.698,0.692,0.424,0.476,0.663,0.423,0.39,0.26,0.298,0.2,0.292,0.261,0.26,1.1,1.09,0.931,0.867,0.872
NCI-H1915,0.697,0.67,0.294,0.595,0.424,0.32,0.314,0.294,0.299,0.23,0.383,0.384,0.228,0.354,0.39,0.973,0.931,0.864,0.811,0.725
NCI-H1944,0.467,0.419,0.337,0.286,0.289,0.434,0.396,0.364,0.311,0.286,0.237,0.202,0.192,0.176,0.174,1.31,0.991,0.99,0.762,0.348
NCI-H1975,0.826,0.921,0.629,0.25,0.177,0.388,0.542,0.373,0.233,0.165,0.434,0.446,0.403,0.211,0.161,1.14,1.05,0.752,0.442,0.193
NCI-H1993,0.387,0.576,0.655,0.643,0.674,0.445,0.505,0.512,0.419,0.54,0.365,0.523,0.533,0.626,0.567,0.859,0.901,0.586,0.771,0.677
NCI-H2009,0.677,0.762,0.59,0.467,0.304,0.301,0.262,0.307,0.266,0.179,0.482,0.509,0.484,0.389,0.303,1.02,1.05,0.524,0.946,0.783
NCI-H2023,0.432,0.493,0.31,0.331,0.179,0.594,0.491,0.371,0.43,0.399,0.434,0.451,0.362,0.323,0.298,0.642,0.523,0.484,0.419,0.287
NCI-H2085,0.736,0.882,0.647,0.398,0.266,0.605,0.698,0.545,0.397,0.315,0.795,0.683,0.708,0.567,0.437,0.992,0.928,0.823,0.664,0.483
NCI-H2087,–,0.634,0.471,0.335,0.267,0.19,0.173,0.15,0.194,0.16,0.493,0.567,0.391,0.415,0.234,1.02,1.03,–,0.978,0.667
NCI-H2126,0.697,0.688,0.69,0.649,0.447,0.646,0.552,0.543,0.497,0.36,0.534,0.535,0.487,0.484,0.381,1.05,1.03,1.03,1.06,0.51
NCI-H2170,0.761,0.771,0.287,0.22,0.239,0.873,0.862,0.631,0.178,0.171,0.419,0.418,0.269,0.268,0.216,1.14,0.77,0.617,0.302,0.223
NCI-H2228,0.536,–,0.662,0.526,0.142,0.457,0.93,0.359,0.58,0.132,0.334,0.331,0.268,0.236,0.122,0.668,0.44,0.294,0.322,0.225
NCI-H2347,0.453,0.573,–,0.434,0.32,0.264,0.317,0.262,0.248,0.266,0.416,0.565,–,0.338,0.244,0.693,0.743,0.629,0.675,0.464
NCI-H2405,0.666,0.653,0.566,0.69,0.496,0.682,0.612,–,0.465,0.513,0.421,0.393,0.414,0.33,0.359,0.873,0.879,0.834,0.765,0.781
NCI-H3122,1.03,0.987,0.9,0.9,0.154,0.29,0.214,0.2,0.227,0.175,0.366,0.407,0.317,0.35,0.187,0.291,0.284,0.222,0.188,0.198
